Laboratory results from ChEMBL document CHEMBL5055659, “Photosensitive and Photoswitchable TRPA1 Agonists Optically Control Pain through Channel Desensitization” (J Med Chem, 2021).
The source made the active and inactive calls. The rule behind the calls is not given here.

What was measured:
[1] = biological target: T1, Transient receptor potential cation channel subfamily A member 1 (Homo sapiens, UniProt O75762); assay: Inhibition of fluorescent probe A1CA binding to TRPA1 (unknown origin) expressed in CHO cells assessed as decrease in fluorescent intensity at 10 uM incubated for 2 mins by confocal fluorescence microscopy; format: cell-based
T1 sequence (O75762 whole entry): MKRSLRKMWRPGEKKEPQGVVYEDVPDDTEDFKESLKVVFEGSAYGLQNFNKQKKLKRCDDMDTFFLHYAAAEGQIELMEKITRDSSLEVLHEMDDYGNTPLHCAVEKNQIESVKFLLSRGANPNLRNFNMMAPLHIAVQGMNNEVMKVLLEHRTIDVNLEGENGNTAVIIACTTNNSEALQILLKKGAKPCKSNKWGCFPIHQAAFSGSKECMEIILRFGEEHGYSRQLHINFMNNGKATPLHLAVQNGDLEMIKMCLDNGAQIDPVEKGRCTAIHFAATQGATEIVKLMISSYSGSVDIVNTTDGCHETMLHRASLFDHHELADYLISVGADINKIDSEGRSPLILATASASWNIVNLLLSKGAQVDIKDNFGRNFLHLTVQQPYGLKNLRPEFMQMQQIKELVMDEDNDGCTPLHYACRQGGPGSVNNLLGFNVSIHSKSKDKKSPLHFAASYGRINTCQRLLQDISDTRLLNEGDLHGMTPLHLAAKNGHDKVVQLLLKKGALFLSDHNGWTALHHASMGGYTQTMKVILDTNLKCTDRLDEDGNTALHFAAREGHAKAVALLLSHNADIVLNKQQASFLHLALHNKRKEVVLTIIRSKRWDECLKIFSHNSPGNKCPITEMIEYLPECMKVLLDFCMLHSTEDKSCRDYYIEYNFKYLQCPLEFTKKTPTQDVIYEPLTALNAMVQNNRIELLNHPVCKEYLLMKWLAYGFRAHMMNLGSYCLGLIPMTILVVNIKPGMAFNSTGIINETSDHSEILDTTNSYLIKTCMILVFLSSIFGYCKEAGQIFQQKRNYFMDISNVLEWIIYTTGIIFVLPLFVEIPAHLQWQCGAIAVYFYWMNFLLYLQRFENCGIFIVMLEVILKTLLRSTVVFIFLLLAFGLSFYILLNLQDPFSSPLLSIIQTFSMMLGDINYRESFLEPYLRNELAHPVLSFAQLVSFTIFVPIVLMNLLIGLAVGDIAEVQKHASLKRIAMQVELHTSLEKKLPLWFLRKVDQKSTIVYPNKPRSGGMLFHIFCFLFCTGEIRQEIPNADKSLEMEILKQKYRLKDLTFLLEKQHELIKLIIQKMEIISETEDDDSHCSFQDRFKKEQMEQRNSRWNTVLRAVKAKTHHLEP

[2] = biological target: T1, Transient receptor potential cation channel subfamily A member 1; assay: Agonist activity at human TRPA1 expressed in HEK293 cells assessed as induction of Ca2+ influx at 300 uM measured under 365 nm UV irradiation by Fluo-8 based calcium imaging assay; format: cell-based; details: filed as agonist
[3] = Drug metabolism in bath solution assessed as photochemical switch by measuring cis-isoform at 50 uM measured after exposure to 365 nm UV irradiation by HPLC analysis; format: physicochemical
[4] = Drug metabolism in bath solution assessed as photochemical switch by measuring trans-isoform reversal at 50 uM measured after exposure to 415 nm UV irradiation by HPLC analysis; format: physicochemical
[5] = biological target: T1, Transient receptor potential cation channel subfamily A member 1; assay: Agonist activity at TRPA1 expressed in CHO cells assessed as reversal of activated channel current in presence of 410 - 420 nm UV irradiation at 100 uM by whole-cell patch clamp electrophysiology; format: cell-based
Mus musculus [6] = organism: Mus musculus; assay: Antinociceptive activity against capsaicin-induced wild type C57BL/6J mouse left check pain model assessed as reduction in frequency of wiping within 10 mins at 1 mM smeared on left check followed by exposed to 365 nm UV light; format: functional, organism-based
[7] = Photostability of the compound in bath solution by measuring reversible photo-isomerism measured after exposure to 365 to 530 nm UV irradiation by UV spectra; format: physicochemical
[8] = Drug metabolism in cyclohexane assessed as thermal isomerization by measuring half life at 50 uM at 25 degC by UV-vis spectroscopy; format: physicochemical
[9] = biological target: T1, Transient receptor potential cation channel subfamily A member 1; assay: Agonist activity at human TRPA1 expressed in HEK293 cells assessed as induction of Ca2+ influx at 10 uM measured under 365 nm UV irradiation by Fluo-8 based calcium imaging assay; format: cell-based; details: filed as agonist
[10] = Drug metabolism in cell external solution assessed as thermal isomerization by measuring half life at 50 uM at 25 degC by UV-vis spectroscopy; format: ADME
HEK293 = assay: Induction of Ca2+ influx in TRPA1 untransfected HEK293 cells at 10 uM measured under 365 nm UV irradiation by Fluo-8 based calcium imaging assay; format: functional, cell-based; details: Homo sapiens
[11] = biological target: T1, Transient receptor potential cation channel subfamily A member 1; assay: Agonist activity at human TRPA1 expressed in HEK293 cells assessed as induction of Ca2+ influx at 10 uM measured under dark by Fluo-8 based calcium imaging assay; format: cell-based
[12] = biological target: T1, Transient receptor potential cation channel subfamily A member 1; assay: Agonist activity at TRPA1 expressed in CHO cells assessed as activation of channel current in presence of 330 - 380 nm UV irradiation by whole-cell patch clamp electrophysiology; format: cell-based
[13] = biological target: Transient receptor potential cation channel subfamily A member 1 (Mus musculus) (UniProt Q8BLA8); assay: In vivo induction of TRPA1 channel desensitization in capsaicin-induced wild type C57BL/6J mouse left check pain model assessed as macroscopic current desensitization at 300 uM treated 11 consecutive repeat measured after exposed to 365 nm UV light; format: functional, organism-based
Transient receptor potential cation channel subfamily A member 1 (Mus musculus), sequence (Q8BLA8 whole entry): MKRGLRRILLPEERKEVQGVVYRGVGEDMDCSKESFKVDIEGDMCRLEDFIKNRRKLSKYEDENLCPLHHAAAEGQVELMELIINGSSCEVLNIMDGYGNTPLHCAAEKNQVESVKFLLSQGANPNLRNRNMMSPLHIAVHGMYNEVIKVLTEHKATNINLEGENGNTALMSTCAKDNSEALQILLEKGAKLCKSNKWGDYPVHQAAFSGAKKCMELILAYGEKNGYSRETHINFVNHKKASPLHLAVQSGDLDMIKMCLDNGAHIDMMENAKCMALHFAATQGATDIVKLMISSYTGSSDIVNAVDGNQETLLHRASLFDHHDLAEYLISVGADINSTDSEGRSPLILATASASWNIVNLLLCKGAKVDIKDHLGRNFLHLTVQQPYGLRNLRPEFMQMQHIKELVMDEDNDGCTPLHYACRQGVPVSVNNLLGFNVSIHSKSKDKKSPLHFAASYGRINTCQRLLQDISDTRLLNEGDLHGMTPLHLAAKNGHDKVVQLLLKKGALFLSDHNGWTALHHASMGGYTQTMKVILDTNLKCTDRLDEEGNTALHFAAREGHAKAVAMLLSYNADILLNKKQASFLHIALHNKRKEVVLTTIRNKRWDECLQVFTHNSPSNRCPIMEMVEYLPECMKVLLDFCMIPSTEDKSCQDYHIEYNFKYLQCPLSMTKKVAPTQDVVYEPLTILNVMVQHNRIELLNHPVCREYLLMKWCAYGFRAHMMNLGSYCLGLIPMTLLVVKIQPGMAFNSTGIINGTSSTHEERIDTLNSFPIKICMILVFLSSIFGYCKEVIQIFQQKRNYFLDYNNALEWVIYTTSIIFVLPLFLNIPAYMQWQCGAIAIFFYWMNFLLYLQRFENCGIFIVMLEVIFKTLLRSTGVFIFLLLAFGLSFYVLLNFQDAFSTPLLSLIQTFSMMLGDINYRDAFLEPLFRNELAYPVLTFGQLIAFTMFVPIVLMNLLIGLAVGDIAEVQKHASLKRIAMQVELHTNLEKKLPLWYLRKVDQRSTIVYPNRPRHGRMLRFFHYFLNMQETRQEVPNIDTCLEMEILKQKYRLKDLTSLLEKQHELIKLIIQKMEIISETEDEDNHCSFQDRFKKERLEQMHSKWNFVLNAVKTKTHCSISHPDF

[14] = biological target: T2, Transient receptor potential cation channel subfamily V member 3 (Homo sapiens) (UniProt Q8NET8); assay: Effect on TRPV3 (unknown origin) transfected in CHO cells assessed as activation of channel current in presence of 365 nm UV irradiation by whole-cell patch clamp electrophysiology; format: cell-based
T2 sequence (whole entry): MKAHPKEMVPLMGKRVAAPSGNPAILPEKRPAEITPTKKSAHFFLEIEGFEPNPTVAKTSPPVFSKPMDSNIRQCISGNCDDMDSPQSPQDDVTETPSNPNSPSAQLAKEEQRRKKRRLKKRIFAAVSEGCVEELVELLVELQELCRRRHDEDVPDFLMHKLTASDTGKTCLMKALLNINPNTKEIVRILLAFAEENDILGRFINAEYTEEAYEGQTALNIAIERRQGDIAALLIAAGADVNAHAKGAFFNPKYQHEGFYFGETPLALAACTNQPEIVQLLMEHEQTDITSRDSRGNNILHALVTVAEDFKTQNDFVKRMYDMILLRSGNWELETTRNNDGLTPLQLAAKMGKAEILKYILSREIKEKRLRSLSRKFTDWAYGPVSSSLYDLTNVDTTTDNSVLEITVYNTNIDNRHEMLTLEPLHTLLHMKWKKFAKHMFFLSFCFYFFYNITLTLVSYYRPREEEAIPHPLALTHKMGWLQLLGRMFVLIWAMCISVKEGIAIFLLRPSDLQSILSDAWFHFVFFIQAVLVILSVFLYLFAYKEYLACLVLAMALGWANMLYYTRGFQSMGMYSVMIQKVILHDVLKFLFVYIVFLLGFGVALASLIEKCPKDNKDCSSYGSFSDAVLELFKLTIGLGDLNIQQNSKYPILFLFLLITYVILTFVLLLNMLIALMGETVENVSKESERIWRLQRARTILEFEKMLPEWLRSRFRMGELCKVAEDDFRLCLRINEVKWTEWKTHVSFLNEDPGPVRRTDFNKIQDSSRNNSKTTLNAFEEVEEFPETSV

[15] = biological target: Sodium channel protein type 5 subunit alpha (Homo sapiens, UniProt Q14524); assay: Effect on Nav1.5 (unknown origin) transfected in CHO cells assessed as activation of channel current in presence of 365 nm UV irradiation by whole-cell patch clamp electrophysiology; format: cell-based
Sodium channel protein type 5 subunit alpha, sequence (Q14524 whole entry): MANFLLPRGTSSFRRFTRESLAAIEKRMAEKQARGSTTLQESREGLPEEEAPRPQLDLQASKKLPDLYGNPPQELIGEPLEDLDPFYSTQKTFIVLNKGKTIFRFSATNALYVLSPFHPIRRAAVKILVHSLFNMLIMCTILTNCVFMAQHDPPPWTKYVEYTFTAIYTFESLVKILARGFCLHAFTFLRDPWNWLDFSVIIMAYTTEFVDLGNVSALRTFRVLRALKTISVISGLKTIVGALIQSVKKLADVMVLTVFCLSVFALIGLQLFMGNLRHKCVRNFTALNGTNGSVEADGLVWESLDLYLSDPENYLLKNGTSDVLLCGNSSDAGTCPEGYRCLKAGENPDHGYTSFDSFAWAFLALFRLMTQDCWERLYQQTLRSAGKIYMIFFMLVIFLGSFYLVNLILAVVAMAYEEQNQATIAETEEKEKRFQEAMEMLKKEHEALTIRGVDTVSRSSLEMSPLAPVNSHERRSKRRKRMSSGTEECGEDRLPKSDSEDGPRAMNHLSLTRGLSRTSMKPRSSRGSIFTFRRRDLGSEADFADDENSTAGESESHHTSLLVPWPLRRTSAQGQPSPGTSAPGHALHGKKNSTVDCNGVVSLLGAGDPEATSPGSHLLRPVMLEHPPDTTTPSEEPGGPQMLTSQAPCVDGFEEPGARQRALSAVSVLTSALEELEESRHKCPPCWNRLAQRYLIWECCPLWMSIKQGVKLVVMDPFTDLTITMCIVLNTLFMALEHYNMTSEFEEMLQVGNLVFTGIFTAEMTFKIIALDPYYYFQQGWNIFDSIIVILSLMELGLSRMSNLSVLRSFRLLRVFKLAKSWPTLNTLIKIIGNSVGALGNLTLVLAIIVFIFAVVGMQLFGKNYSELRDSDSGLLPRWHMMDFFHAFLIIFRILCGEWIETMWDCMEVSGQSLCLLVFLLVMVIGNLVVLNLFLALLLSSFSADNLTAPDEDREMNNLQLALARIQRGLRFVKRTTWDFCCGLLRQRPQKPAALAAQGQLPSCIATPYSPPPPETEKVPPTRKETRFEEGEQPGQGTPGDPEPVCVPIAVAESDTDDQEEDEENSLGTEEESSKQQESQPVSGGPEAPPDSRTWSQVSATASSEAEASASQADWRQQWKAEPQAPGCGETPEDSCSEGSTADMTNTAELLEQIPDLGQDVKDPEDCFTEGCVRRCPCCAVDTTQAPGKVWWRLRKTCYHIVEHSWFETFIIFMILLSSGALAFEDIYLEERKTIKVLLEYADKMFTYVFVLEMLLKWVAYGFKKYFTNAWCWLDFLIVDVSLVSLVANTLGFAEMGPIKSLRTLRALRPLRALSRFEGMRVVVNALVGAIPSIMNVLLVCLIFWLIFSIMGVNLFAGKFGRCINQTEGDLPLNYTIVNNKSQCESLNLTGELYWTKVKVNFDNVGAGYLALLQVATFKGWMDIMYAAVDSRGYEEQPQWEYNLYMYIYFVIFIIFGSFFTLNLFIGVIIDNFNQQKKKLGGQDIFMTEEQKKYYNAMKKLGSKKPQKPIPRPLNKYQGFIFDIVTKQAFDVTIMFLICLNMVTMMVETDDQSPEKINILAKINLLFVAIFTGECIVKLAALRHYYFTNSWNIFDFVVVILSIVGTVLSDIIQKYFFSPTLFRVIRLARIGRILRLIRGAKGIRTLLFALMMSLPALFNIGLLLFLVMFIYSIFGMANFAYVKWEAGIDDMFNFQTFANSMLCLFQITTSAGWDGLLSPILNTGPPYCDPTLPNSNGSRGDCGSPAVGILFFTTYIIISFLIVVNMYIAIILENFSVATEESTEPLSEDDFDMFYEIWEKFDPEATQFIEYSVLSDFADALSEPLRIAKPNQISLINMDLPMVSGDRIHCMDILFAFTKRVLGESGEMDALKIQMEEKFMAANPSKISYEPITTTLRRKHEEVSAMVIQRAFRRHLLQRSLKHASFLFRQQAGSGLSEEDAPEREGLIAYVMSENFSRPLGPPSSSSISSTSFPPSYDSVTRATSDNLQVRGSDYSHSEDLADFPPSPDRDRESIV

[16] = biological target: Sodium channel protein type 4 subunit alpha (Homo sapiens) (UniProt P35499); assay: Effect on Nav1.4 (unknown origin) transfected in CHO cells assessed as activation of channel current in presence of 365 nm UV irradiation by whole-cell patch clamp electrophysiology; format: cell-based
[17] = biological target: Transient receptor potential cation channel subfamily V member 4 (Homo sapiens) (UniProt Q9HBA0); assay: Effect on TRPV4 (unknown origin) transfected in CHO cells assessed as activation of channel current in presence of 365 nm UV irradiation by whole-cell patch clamp electrophysiology; format: cell-based
Transient receptor potential cation channel subfamily V member 4 (Homo sapiens), sequence (Q9HBA0 whole entry): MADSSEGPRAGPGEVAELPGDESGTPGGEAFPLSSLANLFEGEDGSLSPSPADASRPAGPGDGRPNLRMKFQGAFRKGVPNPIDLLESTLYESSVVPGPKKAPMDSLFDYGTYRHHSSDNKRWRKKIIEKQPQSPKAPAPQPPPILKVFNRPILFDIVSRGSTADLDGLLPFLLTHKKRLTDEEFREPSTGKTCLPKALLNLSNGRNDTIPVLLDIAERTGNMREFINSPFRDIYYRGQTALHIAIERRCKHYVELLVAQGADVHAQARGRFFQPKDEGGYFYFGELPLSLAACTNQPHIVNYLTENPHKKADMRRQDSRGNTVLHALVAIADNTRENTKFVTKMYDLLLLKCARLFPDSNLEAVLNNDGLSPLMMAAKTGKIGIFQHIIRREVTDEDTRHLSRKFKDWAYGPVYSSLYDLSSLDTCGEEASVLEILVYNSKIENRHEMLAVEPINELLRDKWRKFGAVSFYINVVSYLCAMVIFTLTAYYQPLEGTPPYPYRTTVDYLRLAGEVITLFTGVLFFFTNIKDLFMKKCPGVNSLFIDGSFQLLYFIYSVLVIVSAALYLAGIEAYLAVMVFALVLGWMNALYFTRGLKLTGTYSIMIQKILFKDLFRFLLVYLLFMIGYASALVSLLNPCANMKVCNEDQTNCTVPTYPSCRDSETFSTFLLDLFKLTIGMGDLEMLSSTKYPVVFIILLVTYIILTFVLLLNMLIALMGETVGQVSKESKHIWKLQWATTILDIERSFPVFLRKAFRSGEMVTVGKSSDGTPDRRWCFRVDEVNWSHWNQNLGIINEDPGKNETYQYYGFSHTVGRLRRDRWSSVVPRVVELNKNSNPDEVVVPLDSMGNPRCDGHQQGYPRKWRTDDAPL

Mus musculus [18] = organism: Mus musculus; assay: Antinociceptive activity against capsaicin-induced wild type C57BL/6J mouse left check pain model assessed as reduction in frequency of wiping within 10 mins at 1 mM smeared on left check; format: functional, organism-based
Mus musculus [19] = organism: Mus musculus; assay: Antinociceptive activity against capsaicin-induced […] knock-out C57BL/6J mouse left check pain model assessed as reduction in frequency of wiping within 10 mins at 1 mM smeared on left check followed by exposed to 365 nm UV light; format: functional, organism-based

Oc1ccc(/N=N/c2ccccc2)cc1
inhibition [1]: Active

C=CCN=C=S
Activity [2]: Active

Oc1cccc(/N=N/c2ccccc2)c1
Drug metabolism [3]: Metabolite_Detected | Drug metabolism [4]: Metabolite_Detected | Activity [5]: inactive | Activity (Mus musculus [6]): inactive | Stability [7]: Stable | half-life at 50 µM [8]: 1.65 min | Activity [9]: Active | inhibition [1]: Active | half-life at 50 µM [10]: 2.43 min | Activity (HEK293): inactive | Activity [11]: inactive | EC50 [12]: 104 µM

Cc1cnccc1/N=N/c1ccccc1
Drug metabolism [3]: Metabolite_Notdetected | Activity (Mus musculus [6]): inactive | Stability [7]: Stable | half-life at 50 µM [8]: 1.67 min | Activity [9]: Active | inhibition [1]: Active | Activity (HEK293): inactive | Activity [11]: inactive | EC50 [12]: 19.2 µM

O=C(O)c1ccc(/N=N/c2ccccc2)cc1
Drug metabolism [3]: Metabolite_Detected | Drug metabolism [4]: Metabolite_Detected | Activity [13]: Active | Activity [14]: inactive | Activity [15]: Not Active | Activity (Mus musculus [6]): Active | Stability [7]: Stable | half-life at 50 µM [8]: 1.35 min | Activity [9]: Active | Activity [16]: inactive | Activity [17]: inactive | inhibition [1]: Active | Activity (Mus musculus [18]): inactive | half-life at 50 µM [10]: 6.55 min | Activity (Mus musculus [19]): inactive | Activity (HEK293): inactive | Activity [11]: inactive | EC50 [12]: 24.8 µM

Nc1cccc(/N=N/c2ccccc2)c1
Drug metabolism [3]: Metabolite_Notdetected | Stability [7]: Stable | Activity [9]: Active | inhibition [1]: Active | Activity (HEK293): inactive | Activity [11]: inactive

Clc1cc(/N=N/c2ccccc2)ccn1
Drug metabolism [3]: Metabolite_Detected | Drug metabolism [4]: Metabolite_Detected | Activity [13]: Active | Activity [14]: inactive | Activity [15]: Not Active | Activity (Mus musculus [6]): Active | Stability [7]: Stable | half-life at 50 µM [8]: 5.3 min | Activity [9]: Active | Activity [16]: inactive | Activity [17]: inactive | inhibition [1]: Active | Activity (Mus musculus [18]): inactive | half-life at 50 µM [10]: 9.67 min | Activity (Mus musculus [19]): inactive | Activity (HEK293): inactive | Activity [11]: inactive | EC50 [12]: 5.55 µM

c1ccc(/N=N/c2ccncc2)cc1
inhibition [1]: Active

C[C@H](CCC(=O)O)C[C@H](C)C[C@H](C)C(=O)/C=C(\O)[C@H](C)C[C@H](C)C/C=C/[C@@H](C)[C@@H](O)[C@@H](C)[C@@H](O)C[C@@H]1CC[C@@](C)([C@H]2CC[C@@](C)([C@@H](C)O)O2)O1
Activity [9]: Active
